# Measurements reported in PubChem BioAssay AID2060604 (Molecular Pharmacology Branch, DTP, NCI, 2025).
# System: 379773-124-R-J2-PDC complex spheroids, viability % test/control
# Assay: Anticancer human tumor 379773-124-R-J2-PDC patient-derived endometrial carcinoma cell line growth inhibition [CLK]
# Details: for IC50: curve of first compound; for viability, T/C: stronger effect = lower value
# How it was run: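 Patient-derived tumor cells grown as complex spheroids with HUVEC endothelial cells and mesenchymal stem cells, treated with drug combinations. Concentrations descend in half-log steps from near clinical Cmax, or from 10 microM if Cmax unknown.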
# 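Further: compound exposure lasted seven days before the viability readout.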
# 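Wherever viability, T/C is given: 100% = DMSO vehicle control wells.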
smiles,measurement,setting,value
CC(=O)O[C@H]1C(=O)[C@@]2(C)[C@H]([C@H](OC(=O)c3ccccc3)[C@]3(O)C[C@H](OC(=O)[C@H](O)[C@@H](NC(=O)c4ccccc4)c4ccccc4)C(C)=C1C3(C)C)[C@]1(OC(C)=O)CO[C@@H]1C[C@@H]2O + CNC(=O)c1ccc(Nc2nc(OC3CCCC3)c3c(-c4ccc5nc(C)oc5c4)c[nH]c3n2)c(OC)c1,IC50,second compound 0.0316 µM,< 31.6 nM
same,IC50,second compound 0.1 µM,< 31.6 nM
same,IC50,second compound 0.316 µM,< 31.6 nM
same,IC50,second compound 1 µM,< 31.6 nM
same,IC50,second compound 3.16 µM,< 31.6 nM
same,IC50,second compound 10 µM,< 31.6 nM
same,"viability, T/C","second compound 0.0316 µM, first compound 0.0316 µM",9.1%
same,"viability, T/C","second compound 0.0316 µM, first compound 0.1 µM",12.2%
same,"viability, T/C","second compound 0.0316 µM, first compound 0.316 µM",13.4%
same,"viability, T/C","second compound 0.0316 µM, first compound 1 µM",9.72%
same,"viability, T/C","second compound 0.0316 µM, first compound 3.16 µM",15.4%
same,"viability, T/C","second compound 0.0316 µM, first compound 10 µM",17.7%
same,"viability, T/C","second compound 0.1 µM, first compound 0.0316 µM",24.6%
same,"viability, T/C","second compound 0.1 µM, first compound 0.1 µM",28.4%
same,"viability, T/C","second compound 0.1 µM, first compound 0.316 µM",28.9%
same,"viability, T/C","second compound 0.1 µM, first compound 1 µM",34.6%
same,"viability, T/C","second compound 0.1 µM, first compound 3.16 µM",25%
same,"viability, T/C","second compound 0.1 µM, first compound 10 µM",33.2%
same,"viability, T/C","second compound 0.316 µM, first compound 0.0316 µM",27.6%
same,"viability, T/C","second compound 0.316 µM, first compound 0.1 µM",24.8%
same,"viability, T/C","second compound 0.316 µM, first compound 0.316 µM",33.2%
same,"viability, T/C","second compound 0.316 µM, first compound 1 µM",33.3%
same,"viability, T/C","second compound 0.316 µM, first compound 3.16 µM",32.2%
same,"viability, T/C","second compound 0.316 µM, first compound 10 µM",27.7%
same,"viability, T/C","second compound 1 µM, first compound 0.0316 µM",30%
same,"viability, T/C","second compound 1 µM, first compound 0.1 µM",28.4%
same,"viability, T/C","second compound 1 µM, first compound 0.316 µM",33.6%
same,"viability, T/C","second compound 1 µM, first compound 1 µM",36%
same,"viability, T/C","second compound 1 µM, first compound 3.16 µM",29.2%
same,"viability, T/C","second compound 1 µM, first compound 10 µM",37.7%
same,"viability, T/C","second compound 3.16 µM, first compound 0.0316 µM",30%
same,"viability, T/C","second compound 3.16 µM, first compound 0.1 µM",27.3%
same,"viability, T/C","second compound 3.16 µM, first compound 0.316 µM",28.9%
same,"viability, T/C","second compound 3.16 µM, first compound 1 µM",25.5%
same,"viability, T/C","second compound 3.16 µM, first compound 3.16 µM",26.4%
same,"viability, T/C","second compound 3.16 µM, first compound 10 µM",31.8%
same,"viability, T/C","second compound 10 µM, first compound 0.0316 µM",29.1%
same,"viability, T/C","second compound 10 µM, first compound 0.1 µM",33.5%
same,"viability, T/C","second compound 10 µM, first compound 0.316 µM",31.6%
same,"viability, T/C","second compound 10 µM, first compound 1 µM",35.1%
same,"viability, T/C","second compound 10 µM, first compound 3.16 µM",30.7%
same,"viability, T/C","second compound 10 µM, first compound 10 µM",36.1%
